Experimental data as given in patent publication US9205064B2, “Methods for the diagnosis of oncological disorders using epimetabolic shifters, multidimensional intracellular molecules, or environmental influencers” (Berg LLC, priority 2009, dated 2015).

Columns and labels:
[1] = tested on: Isocitrate Dehydrogenase-1 (IDH-1); test: Western blot of IDH1 levels in normal and cancer cells; assay type: cell-based, human; conditions: PACA2, 5g48-100
Description: The whole cell pellets were resuspended one at a time in 1 mL of C7 buffer and transferred to labeled 15 mL tubes. The samples were then sonicated in the cold room on ice using 6 sonic pulses with the setting at #14. The samples were spun for a short time to 2500 g after sonication and the samples transferred to 2 ml tubes. The pH was verified of each sample (pH should be 9.0) using the foam remaining in the […] sample tubes.
Alkylation and reduction of samples was performed for each sample by adding 10 ul of 1M acrylamide, 25 ul of tributylphoshene and incubation for 90 mins with intermittent mixing. After incubation, 10 ul of 1M DTT was added and the tubes were spun at 20,000 g at 20 deg C. for 10 minutes and transferred the supernatant to labeled Amicon Ultra centrifugal filter units with a 10 k cut off (Millipore catalog #UFC 801024). The samples were spun for 15 minutes at 2500 g in 2 intervals. The conductivity was measured for Chaps alone as well as the samples using a conductivity meter. If the conductivity of samples is high, then 1 ml of chaps was added for buffer exchange and spun again at 2500 g until the volume was down to 250 ul. […]
The samples were processed as per standard protocols as described above and the amount of protein in each of the samples was determined by Bradford assay. […]

SCC cells = test: Real-time PCR Apoptosis Array; assay type: cell-based
Description: The control cells were untreated cells.
RNA was quantified by measuring Optical Density at 260 nm.
The genes in the Apoptosis array that appear to be regulated in SCC cells are described in Table 7. […] By 24 hours, the regulation is decreased.

Q: How did the “IDH1 Normalized Intensity (HASMC vs. PACA2)” value [1] turn out when `COC1=C(OC)C(=O)C(C/C=C(\C)CC/C=C(\C)CC/C=C(\C)CC/C=C(\C)CC/C=C(\C)CC/C=C(\C)CC/C=C(\C)CC/C=C(\C)CC/C=C(\C)CCC=C(C)C)=C(C)C1=O` [Q10, Coenzyme Q10] was run?
A: The value was 860.

Q: And the “AKT1 mRNA Regulation” value (SCC cells; 100 μM Q10, 6 hours)?
A: Its value is “Down regulated at 6 hours and then”.

Q: What about the “BCL2L1 mRNA Regulation” value (SCC cells; 100 μM Q10, 6 hours) of the same molecule?
A: The value was “Down regulated at 6 hours and then”.

Q: And the “BIRC3 mRNA Regulation” value (SCC cells; 100 μM Q10, 6 hours)?
A: The value was “Down regulated at 6 hours”.

Q: And the “CARD6 mRNA Regulation” value (SCC cells; 100 μM Q10, 6 hours)?
A: The value was “Down regulated at 6 hours”.

Q: And the “CD27 mRNA Regulation” value (SCC cells; 100 μM Q10, 6 hours)?
A: Its value is “Down regulated at 6 hours”.

Q: What about the “CD40 mRNA Regulation” value (SCC cells; 100 μM Q10, 6 hours) of the same molecule?
A: The value was “Down regulated at 6 hours”.

Q: And the “CD70 mRNA Regulation” value (SCC cells; 100 μM Q10, 6 hours)?
A: Its value is “Down regulated at 6 hours”.

Q: And the “TNFRSF9 mRNA Regulation” value (SCC cells; 100 μM Q10, 6 hours)?
A: The value was “Down regulated at 6 hours”.

Q: And the “TNFRSF21 mRNA Regulation” value (SCC cells; 100 μM Q10, 6 hours)?
A: Its value is “Down regulated at 6 hours”.

Q: What about the “TNFRSF25 mRNA Regulation” value (SCC cells; 100 μM Q10, 6 hours) of the same molecule?
A: The value was “Down regulated at 6 hours and then”.

Q: What about the “TP73 mRNA Regulation” value (SCC cells; 100 μM Q10, 6 hours) of the same molecule?
A: Its value is “Down regulated at 6 hours and then”.

Q: And the “AKT1 mRNA Regulation” value (SCC cells; 100 μM Q10, 24 hours)?
A: The value was “up regulated at 24 hours”.

Q: And the “BAG4 mRNA Regulation” value (SCC cells; 100 μM Q10, 24 hours)?
A: The value was “Up regulated at 24 hours”.

Q: And the “BAX mRNA Regulation” value (SCC cells; 100 μM Q10, 24 hours)?
A: The value was “Up regulated at 24 hours”.

Q: And the “BCL2L1 mRNA Regulation” value (SCC cells; 100 μM Q10, 24 hours)?
A: The value was “up regulated at 24 hours”.

Q: And the “BCL2 mRNA Regulation” value (SCC cells; 100 μM Q10, 24 hours)?
A: Its value is “Up regulated at 24 hours”.

Q: And the “BNIP3 mRNA Regulation” value (SCC cells; 100 μM Q10, 24 hours)?
A: The value was “Down regulated at 24 hours”.

Q: What about the “CASP6 mRNA Regulation” value (SCC cells; 100 μM Q10, 24 hours) of the same molecule?
A: The value was “Up regulated at 24 hours”.

Q: And the “CASP7 mRNA Regulation” value (SCC cells; 100 μM Q10, 24 hours)?
A: The value was “Up regulated at 24 hours”.

Q: What about the “FADD mRNA Regulation” value (SCC cells; 100 μM Q10, 24 hours) of the same molecule?
A: Its value is “Up regulated at 24 hours”.

Q: And the “GADD45A mRNA Regulation” value (SCC cells; 100 μM Q10, 24 hours)?
A: Its value is “Up regulated at 24 hours”.

Q: And the “HRK mRNA Regulation” value (SCC cells; 100 μM Q10, 24 hours)?
A: The value was “Up regulated at 24 hours”.

Q: And the “TNFRSF25 mRNA Regulation” value (SCC cells; 100 μM Q10, 24 hours)?
A: Its value is “up regulated at 24 hours”.

Q: And the “TNFSF10 mRNA Regulation” value (SCC cells; 100 μM Q10, 24 hours)?
A: Its value is “Up regulated at 24 hours”.

Q: What about the “TP53 mRNA Regulation” value (SCC cells; 100 μM Q10, 24 hours) of the same molecule?
A: The value was “Up regulated at 24 hours”.

Q: And the “TP73 mRNA Regulation” value (SCC cells; 100 μM Q10, 24 hours)?
A: The value was “up regulated at 24 hours”.

Q: And the “TRAF2 mRNA Regulation” value (SCC cells; 100 μM Q10, 24 hours)?
A: Its value is “Up regulated at 24 hours”.
